Here are results for 85 compounds from PMC8041284, “Tunable Methacrylamides for Covalent Ligand Directed Release Chemistry” (Journal of the American Chemical Society, 2021).

In this assay the target is BTK (Homo sapiens, UniProt Q06187). In words: biochemical. As to conditions: read-out: BTK inhibition (%), 0.75 uM BTK, […] probe 3l, 15 min preincubation.
Sequence of BTK (Q06187 402-655 limits assumed): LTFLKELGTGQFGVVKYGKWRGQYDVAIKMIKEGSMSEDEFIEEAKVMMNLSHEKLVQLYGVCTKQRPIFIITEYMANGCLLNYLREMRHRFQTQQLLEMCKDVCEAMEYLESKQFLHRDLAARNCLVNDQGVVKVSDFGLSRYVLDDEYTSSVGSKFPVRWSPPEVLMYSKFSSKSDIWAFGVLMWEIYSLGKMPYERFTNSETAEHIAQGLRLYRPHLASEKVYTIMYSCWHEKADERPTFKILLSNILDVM

The term inhibition denotes the drop in the measured response relative to a control, in per cent. As for `O=c1[nH]c2ccccc2n1CCCN1CCC(n2c(=O)[nH]c3cc(Cl)ccc32)CC1` [PCM-0065112], the inhibition at 10 µM stood at 5.4%.
Turning to `CNC[C@H](O)c1ccc(O)c(O)c1` [PCM-0065121], the inhibition at 10 µM is -9.3%.
For `O=C(CCCN1CCC(O)(c2ccc(Cl)cc2)CC1)c1ccc(F)cc1` [PCM-0065124] the value was -12.5%.
Turning to `CCOC(=O)c1ncn2c1CN(C)C(=O)c1cc(F)ccc1-2` [PCM-0065129], the inhibition at 10 µM was determined as 3.1%.
`NCCc1ccc(O)c(O)c1` [PCM-0065130]: the inhibition at 10 µM is -2.3%.
For the compound `CCOC(=O)C1=C(C)NC(C)=C(C(=O)OC)C1c1cccc(Cl)c1Cl` (stereo not shown) [PCM-0065133], the inhibition at 10 µM stood at 17.9%.
On to `CN(CCOc1ccc(NS(C)(=O)=O)cc1)CCc1ccc(NS(C)(=O)=O)cc1` [PCM-0065138], for which the inhibition at 10 µM is -7%.
Turning to `Nc1ccn([C@H]2CC[C@@H](CO)O2)c(=O)n1` [PCM-0065156], the inhibition at 10 µM was -22.6%.
In the case of `NNc1nncc2ccccc12` [PCM-0065163] it was -0.9%; in that of `COC(=O)C1=CO[C@@H](O)[C@@H]2C(CO)=CC[C@H]12` [PCM-0065168], -1.6%; in that of `NC(=O)NO` [PCM-0065169], 10.9%.
Turning to `O=c1c(-c2ccc(O)cc2)coc2cc(O)cc(O)c12` [PCM-0065176], the inhibition at 10 µM is 16.6%.
For the compound `O=C(O)COCCN1CCN(C(c2ccccc2)c2ccc(Cl)cc2)CC1` (stereo not shown) [PCM-0065180], the inhibition at 10 µM is 15.2%.
As to `Cc1cccc(C)c1NC(=O)CN1CCCC1=O` [PCM-0065191], the inhibition at 10 µM is -8.6%.
In the case of `NC(N)=N/N=C/c1c(Cl)cccc1Cl` [PCM-0065199] it was -2.3%; in that of `NC(=O)OCC(COC(N)=O)c1ccccc1` [PCM-0065204], 3.1%; in that of `Fc1ccc(C(c2ccc(F)cc2)N2CCN(C/C=C/c3ccccc3)CC2)cc1` [PCM-0065210], 87.2%.
`Cc1ccccc1N1C(=O)c2cc(S(N)(=O)=O)c(Cl)cc2NC1C` (stereo not shown) [PCM-0065217]: the inhibition at 10 µM was -4.7%.
For the compound `CN(C)C(=O)[C@H](O)[C@H](Cc1ccccc1)NC(=O)c1cc2cc(Cl)ccc2[nH]1` [PCM-0065218], the inhibition at 10 µM stood at 5.4%.
For the compound `CN(C)CCOC(c1ccccc1)c1ccccc1` [PCM-0065230], the inhibition at 10 µM stood at 2.1%.
Regarding `C[N+](C)(C)CCCCCC[N+](C)(C)C` [PCM-0065242], the inhibition at 10 µM is -14.5%.
For the compound `O=c1[nH]cc(F)c(=O)[nH]1` [PCM-0065247], the inhibition at 10 µM was -0.7%.
`Nc1nc2c(ncn2COC(CO)CO)c(=O)[nH]1` [PCM-0065253]: the inhibition at 10 µM was -3.9%.
In the case of `C[C@@](Cc1ccc(O)c(O)c1)(NN)C(=O)O` [PCM-0065259] it was -14.8%; in that of `CN1C(=O)CCS(=O)(=O)C1c1ccc(Cl)cc1` (stereo not shown) [PCM-0065261], -14%.
For the compound `OCCN(CCO)c1nc(N2CCCCC2)c2nc(N(CCO)CCO)nc(N3CCCCC3)c2n1` [PCM-0065264], the inhibition at 10 µM is 10.9%.
For the compound `CNS(=O)(=O)CCc1ccc2[nH]cc(C3CCN(C)CC3)c2c1` [PCM-0065268], the inhibition at 10 µM is -14.8%.
Consider `Cc1cccc(-c2[nH]ncc2-c2ccc3ncccc3n2)n1` [PCM-0065277], for which the inhibition at 10 µM was 13.9%.
In the case of `Cc1cnc(C(=O)NCCc2ccc(S(=O)(=O)NC(=O)NC3CCCCC3)cc2)cn1` [PCM-0065278], the inhibition at 10 µM worked out at 13.2%.
With `CCOC(=O)Nc1ccc(NCc2ccc(F)cc2)nc1N` [PCM-0065288], the inhibition at 10 µM is -8.6%.
In the case of `NC(=O)CC[C@H](N)C(=O)O` [PCM-0065292] it was 17.9%.
For the compound `CC[N+](CC)(CC)CCOc1cccc(OCC[N+](CC)(CC)CC)c1OCC[N+](CC)(CC)CC` [PCM-0065294], the inhibition at 10 µM came out at 9.3%.
With `COc1cc2nc(N3CCN(C(=O)C4COc5ccccc5O4)CC3)nc(N)c2cc1OC` (stereo not shown) [PCM-0065300], the inhibition at 10 µM is -11.7%.
For `O=P(O)(O)C(Cl)(Cl)P(=O)(O)O` [PCM-0065307] the value was -23.8%.
In the case of `O=C(O)CCc1ccc(NCc2cccc(Oc3ccccc3)c2)cc1` [PCM-0065313] it was -41.4%.
`Cc1cc(O)c2c(c1)C(=O)c1cc(O)cc(O)c1C2=O` [PCM-0065315]: the inhibition at 10 µM was 69.3%.
In the case of `CC(C)C(=O)Nc1ccc([N+](=O)[O-])c(C(F)(F)F)c1` [PCM-0065325], the inhibition at 10 µM is -3.4%.
Regarding `CNCCC(Oc1ccc(C(F)(F)F)cc1)c1ccccc1` (stereo not shown) [PCM-0065327], the inhibition at 10 µM was -7.8%.
Regarding `COc1ccc2cccc(CCNC(C)=O)c2c1` [PCM-0065343], the inhibition at 10 µM was -16.3%.
Turning to `COCCc1ccc(OCC(O)CNC(C)C)cc1` (stereo not shown) [PCM-0065348], the inhibition at 10 µM is 17%.
In the case of `Cc1oncc1C(=O)Nc1ccc(C(F)(F)F)cc1` [PCM-0065349], the inhibition at 10 µM was -5.5%.
Regarding `CCN(CC)CCOC(=O)c1ccc(N)cc1` [PCM-0065363], the inhibition at 10 µM is 3.9%.
`O=[N+]([O-])c1ccc2c(c1)S(=O)(=O)C=C2` [PCM-0065368]: the inhibition at 10 µM is 40.9%.
As to `CCN(CC)CCCC(C)Nc1c2ccc(Cl)cc2nc2ccc(OC)cc12` (stereo not shown) [PCM-0065371], the inhibition at 10 µM was -8.5%.
As to `COC(=O)Nc1nc2ccc(C(=O)c3cccs3)cc2[nH]1` [PCM-0065378], the inhibition at 10 µM was -6.2%.
Take `Cc1[nH]c(=O)c(C#N)cc1-c1ccncc1` [PCM-0065386]: the inhibition at 10 µM is -9.3%.
In the case of `Cc1cccc(C#Cc2ccccc2)n1` [PCM-0065388], the inhibition at 10 µM was -10.9%.
In the case of `O=C(c1ccc(OCCN2CCCCC2)cc1)c1c(-c2ccc(O)cc2)sc2cc(O)ccc12` [PCM-0065394], the inhibition at 10 µM worked out at 85.5%.
With `CC(C)NCC(O)c1ccc(NS(C)(=O)=O)cc1` (stereo not shown) [PCM-0065402], the inhibition at 10 µM was -16.3%.
With `CC1CCN(CC[C@H]2CCCN2S(=O)(=O)c2cccc(O)c2)CC1` [PCM-0065410], the inhibition at 10 µM was determined as 7.8%.
For `CN1CCN2c3ccccc3Cc3ccccc3C2C1` (stereo not shown) [PCM-0065420], the inhibition at 10 µM is 12.4%.
Regarding `NC(=O)c1ncn([C@@H]2O[C@H](CO)[C@@H](O)[C@H]2O)c1O` [PCM-0065422], the inhibition at 10 µM stood at 0.9%.
Consider `CC(=O)N1CCN(c2ccc(OC[C@@H]3CO[C@@](Cn4ccnc4)(c4ccc(Cl)cc4Cl)O3)cc2)CC1` [PCM-0065423], for which the inhibition at 10 µM is -29.8%.
For the compound `CC1=C(/C=C/C(C)=C/C=C/C(C)=C/C(=O)O)C(C)(C)CCC1` [PCM-0065434], the inhibition at 10 µM was -32.7%.
In the case of `Cc1ccc(N(CC2=NCCN2)c2cccc(O)c2)cc1` [PCM-0065435] it was -8.6%; in that of `CCCN1C[C@H](CSC)C[C@@H]2c3cccc4[nH]cc(c34)C[C@H]21` [PCM-0065439], -1.6%.
Turning to `Nc1nc2ccc(OC(F)(F)F)cc2s1` [PCM-0065440], the inhibition at 10 µM was -10.1%.
`CC1=C(CC(=O)O)c2cc(F)ccc2/C1=C\c1ccc([S+](C)[O-])cc1` (stereo not shown) [PCM-0065451]: the inhibition at 10 µM is 8.3%.
For `COc1nc(C)nc(Cl)c1NC1=NCCN1` [PCM-0065456] the value was 0.8%; for `O=C(c1ccccc1)c1ccc2n1CCC2C(=O)O` (stereo not shown) [PCM-0065461], -11.7%.
Regarding `CC(C(=O)O)c1ccc(CC2CCCC2=O)cc1` (stereo not shown) [PCM-0065463], the inhibition at 10 µM was determined as 1.7%.
Take `CCn1cc(C(=O)O)c(=O)c2cc(F)c(N3CCNC(C)C3)c(F)c21` (stereo not shown) [PCM-0065465]: the inhibition at 10 µM was -2.6%.
For `COc1ccc(C2CNC(=O)C2)cc1OC1CCCC1` (stereo not shown) [PCM-0065474] the value was 13.2%.
In the case of `CCCCC1C(=O)N(c2ccccc2)N(c2ccccc2)C1=O` [PCM-0065475], the inhibition at 10 µM was -17.2%.
As to `CN/C(=C\[N+](=O)[O-])NCCSCc1ccc(CN(C)C)o1` [PCM-0065476], the inhibition at 10 µM was -3.4%.
As for `NCCCNCCCCNCCCN` [PCM-0065483], the inhibition at 10 µM is -26.9%.
In the case of `CCCCCCNC(=O)n1cc(F)c(=O)[nH]c1=O` [PCM-0065487] it was -7%; in that of `O=C(/C=C/c1ccc(O)cc1)c1ccc(O)cc1O` [PCM-0065490], 17.1%.
Consider `CC(C(=O)O)c1cccc(C(=O)c2ccccc2)c1` (stereo not shown) [PCM-0065500], for which the inhibition at 10 µM was -17.9%.
With `Nc1nnc(-c2cccc(Cl)c2Cl)c(N)n1` [PCM-0065504], the inhibition at 10 µM was 16.3%.
For `c1ccc([C@H]2CN3CCSC3=N2)cc1` [PCM-0065508], the inhibition at 10 µM stood at 17.9%.
For `C[C@](N)(Cc1ccc(O)c(O)c1)C(=O)O` [PCM-0065509] the value was -18.7%; for `CC1=C(/C=C/C(C)=C/C=C/C(C)=C\C(=O)O)C(C)(C)CCC1` [PCM-0065511], -42.1%; for `COc1cc2nc(N3CCN(C(=O)c4ccco4)CC3)nc(N)c2cc1OC` [PCM-0065512], -6%.
Turning to `CCCNC(C)C(=O)Nc1ccccc1C` (stereo not shown) [PCM-0065518], the inhibition at 10 µM is -16.3%.
Turning to `CNCC(O)c1ccc(O)cc1` (stereo not shown) [PCM-0065519], the inhibition at 10 µM was found to be 7%.
For `CCN1CCC[C@H]1CNC(=O)c1cc(S(N)(=O)=O)ccc1OC` [PCM-0065527] the value was -6.2%; for `CN[C@H](CC(=O)O)C(=O)O` [PCM-0065539], -10%.
In the case of `O=c1c(O)c(-c2ccc(O)cc2O)oc2cc(O)cc(O)c12` [PCM-0065541] it was 10.1%; in that of `O=C1c2c(O)ccc(O)c2C(=O)c2c(NCCNCCO)ccc(NCCNCCO)c21` [PCM-0065547], 51%; in that of `NC(=O)c1cnccn1` [PCM-0065550], 5.4%.
In the case of `O=c1c2ccccc2nc2n1CCc1c-2[nH]c2ccccc12` [PCM-0065551] it was 0.7%; in that of `O=C(CCc1ccc(O)cc1)c1c(O)cc(O)cc1O` [PCM-0065552], 15.2%; in that of `CC(=O)Oc1cc(C(F)(F)F)ccc1C(=O)O` [PCM-0065558], -8.6%.
With `Cc1ccc(S(=O)(=O)/C=C/C#N)cc1` [PCM-0065564], the inhibition at 10 µM was -12.4%.
